Laboratory results published in publication PMC7946228, “Discovery of novel candidates for anti-liposarcoma therapies by medium-scale high-throughput drug screening” (PLoS ONE, 2021).
pIC50: −log10 of the molar value. Read-outs that look alike come from different tables or passages of the source.

Legend:
[1] = test system: liposarcoma cell lines; test: Drug withdrawal, reversibility of growth arrest; assay type: cell-based, human; details: for reversibility of growth inhibition after drug removal: then 72h without drug, except T778 with MLN9708
Procedure: (§1) The cellular proliferation rate was measured using the IncuCyte ZOOM live-cell imaging system (Essen Bioscience, Birmingham, UK) with the corresponding software application (version 2013BRev1). First the growth rate for each cell line was established to estimate the seeding numbers of cells corresponding to 15–30% of confluence at the start of the experiment and maximum 70% after 72h. The drug treatment was initiated approximately 18h after seeding. The proliferation rate was measured as cell confluence over time through the acquisition of photographs under phase contrast every third hour for the entire duration of the drug treatment. During the drug treatment, media were not changed, and cells were not split. The growth reducing drug concentration was defined as lowest drug concentration leading to significant decrease of cellular growth between 40 and 72h after start of treatment. To determine that concentration, plots were generated using IncuCyte software and differences in growth between 40 and 72h were calculated using least-square means with the ‘emmeans’ R package version 1.4.3 [25]. Growth arresting concentrations were defined as minimal drug concentration under which cell confluence between 96 and 120h increases by less than 3%. Though growth arrest occurred much earlier, these time points ensured that the growth arrest is a stable phenomenon. These growth arresting concentrations were used for drug withdrawal, apoptosis and cell cycle experiments. All the data were verified with the plots. The presented values correspond to median values from two (T449, all compounds) to five (all cell lines, triptolide) biological replicates.
An important prerequisite for clinical implementation of these compounds as treatment for liposarcoma is irreversibility of the induced growth inhibition. We thus assessed if the drugs were only transiently cytostatic, which is especially important in case of the compounds that seem to work mainly via cell cycle arrest (APO866, GSK2126458). Cells were treated with the compounds at growth arresting concentrations for 120h after which the compounds were removed and cell numbers were monitored for another 72h. […] To irreversibly arrest cell proliferation GSK2126458 had to be used at 10x higher concentrations (100x for GOT3) (S5 Fig). Those concentrations are above physiological ranges (see Table 2), and these effects should be accounted for assessing use of GSK2126458 in clinic.

[2] = cited from earlier work
[3] = test system: LiSa-2 liposarcoma cell line; test: CellTiter-Glo viability, GR50, 72h; assay type: cell-based, human; details: LiSa-2, 72h, read-out: Half maximum effective concentration corrected for cell growth (GR50)
Procedure: (§2) Cell viability was measured using the CellTiter-Glo Luminescent Cell Viability Assay (Promega, Wisconsin, United States). For each experiment the same cell numbers were seeded as for the proliferation experiments. Seven drug concentrations were used, starting from 100μM with 10-fold dilutions and also a vehicle control appropriate for each drug (DMSO or ethanol). After 72h of drug or vehicle control treatment levels of ATP were measured with CellTiter-Glo. The data from six to nine biological replicates, each with three technical replicates were collected. A nonlinear regression model with different four-parameter log-logistic function was used for modelling of the drug dose-response using ‘GRmetrics’ R package version 1.8.1 [26]. The calculated GR50 metric is equivalent to the IC50 metric but takes into account the growth rate of cells. Therefore, it estimates better the effect of the compound on cell viability and allows for comparison between different cell lines with different growth rates.

[4] = test system: LPS141 liposarcoma cell line; test: CellTiter-Glo viability, GR50, 72h; assay type: cell-based, human; details: LPS 141, 72h, read-out: Half maximum effective concentration corrected for cell growth (GR50)
Procedure: as §2

[5] = test system: LPS853 liposarcoma cell line; test: CellTiter-Glo viability, GR50, 72h; assay type: cell-based, human; details: LPS 853, 72h, read-out: Half maximum effective concentration corrected for cell growth (GR50)
Procedure: as §2

[6] = test system: T449 liposarcoma cell line; test: CellTiter-Glo viability, GR50, 72h; assay type: cell-based, human; details: T449, 72h, read-out: Half maximum effective concentration corrected for cell growth (GR50)
Procedure: as §2

[7] = test system: T1000 liposarcoma cell line; test: CellTiter-Glo viability, GR50, 72h; assay type: cell-based, human; details: T1000, 72h, read-out: Half maximum effective concentration corrected for cell growth (GR50)
Procedure: as §2

[8] = test system: SA-4 liposarcoma cell line; test: CellTiter-Glo viability, GR50, 72h; assay type: cell-based, human; details: SA-4, 72h, read-out: Half maximum effective concentration corrected for cell growth (GR50)
Procedure: as §2

[9] = test system: LPS510 liposarcoma cell line; test: CellTiter-Glo viability, GR50, 72h; assay type: cell-based, human; details: LPS 510, 72h, read-out: Half maximum effective concentration corrected for cell growth (GR50)
Procedure: as §2

[10] = test system: NRH-LS1 liposarcoma cell line; test: CellTiter-Glo viability, GR50, 72h; assay type: cell-based, human; details: NRH-LS1, 72h, read-out: Half maximum effective concentration corrected for cell growth (GR50)
Procedure: as §2

[11] = test system: T778 liposarcoma cell line; test: CellTiter-Glo viability, GR50, 72h; assay type: cell-based, human; details: T778, 72h, read-out: Half maximum effective concentration corrected for cell growth (GR50)
Procedure: as §2

[12] = test system: SW872 liposarcoma cell line; test: CellTiter-Glo viability, GR50, 72h; assay type: cell-based, human; details: SW 872, 72h, read-out: Half maximum effective concentration corrected for cell growth (GR50)
Procedure: as §2

[13] = test system: GOT3 liposarcoma cell line; test: CellTiter-Glo viability, GR50, 72h; assay type: cell-based, human; details: GOT3, 72h, read-out: Half maximum effective concentration corrected for cell growth (GR50)
Procedure: as §2

[14] = test system: FU-DDLS-1 liposarcoma cell line; test: CellTiter-Glo viability, GR50, 72h; assay type: cell-based, human; details: FU-DDL S-1, 72h, read-out: Half maximum effective concentration corrected for cell growth (GR50)
Procedure: as §2

[15] = test system: LS2 liposarcoma cell line; test: CellTiter-Glo viability, GR50, 72h; assay type: cell-based, human; details: LS2, 72h, read-out: Half maximum effective concentration corrected for cell growth (GR50)
Procedure: as §2

[16] = test system: liposarcoma cell lines; test: TUNEL apoptosis assay by flow cytometry; assay type: cell-based, human; details: growth arresting concentration, 17-72h, majority of cell lines
Procedure: (§3) Cells were treated with drugs at the concentrations corresponding to previously established growth arresting concentrations and collected between 17 and 72h. Time of collection was individual for every drug/cell line combination; cells were collected after the beginning of complete growth inhibition (based on the growth curves data) but only when first signs of morphological change or cell death were visible (estimated microscopically approximately every 2h). After methanol fixation, cells were barcoded with different combinations of Pacific Blue/Pacific Orange dyes (Thermo Fisher Scientific) for different drug treatments. After mixing, cells were incubated in the TUNEL reaction mix for 1h at 37°C, according to the manufacturer’s instructions (Roche, Germany), stained with Streptavidin-Cy5 conjugated Ab and digested with RNAse. Cells were counter-stained with propidium iodide and analyzed using LSR II Flow Cytometer (BD Biosciences, NJ, USA. The data were processed with FlowJo Version 7.6.5 (Tree Star, Ashland, USA). The gating strategy is presented in Fig 3A. Cy-5 positive cells (as compared to control sample) were calculated as apoptotic. Cell cycles of non-apoptotic cells were analyzed using the built in FlowJo Cell Cycle Analysis module. Three independent biological replicates were done for each cell line/drug combination with exception of FU-DDLS-1 and T1000 –for which we only had two replicates available.

[17] = test system: liposarcoma cell lines; test: Cell cycle analysis of non-apoptotic cells (propidium iodide); assay type: cell-based, human; details: growth arresting concentration, non-apoptotic fraction
Procedure: as §3

[18] = test system: liposarcoma cell lines; test: IncuCyte cell proliferation assay (growth reducing/arresting concentration); assay type: cell-based, human; details: complete growth arrest between 96 and 120h
Procedure: as §1, with “15-30%” for “15–30%”, “'[…]” for “‘emmeans’ R”, “([…],” for “(T449,”

[19] = 120h treatment at growth arresting concentration
[20] = intravenous, phase I, maximum tolerated dose

In the case of `COc1ncc(-c2ccc3nccc(-c4ccnnc4)c3c2)cc1NS(=O)(=O)c1ccc(F)cc1F` [GSK2126458], the “reversibility of growth inhibition after drug removal” value [1, 19] was “All of the tested cell lines regained their growth rate”, the “time to regain growth rate after withdrawal” value ([1]; all tested cell lines, 120h treatment at growth arresting concentration) was no more than 3 h and the “concentration needed for irreversible growth arrest relative to growth arresting concentration” value ([1]; cell lines that resumed growth, 100x for GOT3 with GSK2126458) was 10 x higher. The Cmax ([2]; phase I trial of multiple tumor types) was roughly 100 nM, the Cmax ([2]; read-out: clinically relevant concentration (Cmax or Css), values show Cmax or Css (italics), patients) was 100 nM and the pIC50 ([3]; Homo sapiens) was 7.27. For the same molecule, the pIC50 ([4]; Homo sapiens, LPS141) was 6.74, the pIC50 ([5]; Homo sapiens) was 7.30 and the pIC50 ([6]; Homo sapiens) was 8.00. It also gave a pIC50 ([7]; Homo sapiens) of 7.85, a pIC50 ([8]; Homo sapiens) of 7.07 and a pIC50 ([9]; Homo sapiens) of 7.09. For the same molecule, the pIC50 ([10]; Homo sapiens) was 6.33, the pIC50 ([11]; Homo sapiens) was 7.28 and the pIC50 ([12]; Homo sapiens, SW872) was 6.40. For the same molecule, the pIC50 ([13]; Homo sapiens) was 7.55, the pIC50 ([14]; Homo sapiens) was 7.02 and the pIC50 ([15]; Homo sapiens) was 6.96. The “apoptosis (increase in % of apoptotic cells)” value [16] was no more than 5% and the “cell cycle phase in which cells are blocked” value [17] was “G1 phase”.

For `CC(C)C[C@H](NC(=O)CNC(=O)c1cc(Cl)ccc1Cl)B1OC(=O)C(CC(=O)O)(CC(=O)O)O1` [MLN9708], the “reversibility of growth inhibition after drug removal” value [1, 19] is given as “irreversibly inhibited growth of all tested cell lines”, the “concentration required to completely arrest more than half of the cell lines” value [18] is given as “at least 1 μM” and the Cmax ([2]; human, in vivo) is given as 30 to 300 nM. For the same molecule, the Cmax [2, 20] was no more than 1400 nM, the Css [2, 20] was 30 to 300 nM and the pIC50 [3] was 6.13. For the same molecule, the pIC50 [4] was 6.28, the pIC50 [5] was 7.02 and the pIC50 [6] was 5.99. For the same molecule, the pIC50 [7] was 6.33, the pIC50 [8] was 6.49 and the pIC50 [9] was 6.08. For the same molecule, the pIC50 [10] was 6.13, the pIC50 [11] was 6.11 and the pIC50 [12] was 6.26. For the same molecule, the pIC50 [13] was 7.00, the pIC50 [14] was 6.20 and the pIC50 [15] was 6.20. The “apoptosis (increase in % of apoptotic cells)” value [16] was “above 5%” and the “cell cycle phase in which cells are blocked” value [17] was “less specific arrest”.
